Reference: patent publication EP0160578A1, “1,8-Naphthyridine derivatives” (DAIICHI SEIYAKU CO., LTD., priority 1984, dated 1985)
≈ marks a conversion by molar mass, not a printed value.

Experiments:
Assay in all cases: Antibacterial activity, dilution method in Muller-Hinton Bouillon (MIC)
Format in all cases: cell-based
[1] = test system: E. coli, NIHJ; details: Escherichia coli, 10^6/ml bacteria, 37°C, 18 hours, read-out: Minimal Inhibitory Concentration (MIC)
Procedure: (§1) The antibacterial activity of the compounds of the present invention was determined by the standard method of the Japan Society of Chemotherapy: according to the dilution method in Muller-Hinton Bouillon, 10^6/ml of bacteria were seeded and incubated at 37°C for 18 hours.

[2] = test system: Pr. mirabilis, 1287; details: Proteus mirabilis, 10^6/ml bacteria, 37°C, 18 hours, read-out: Minimal Inhibitory Concentration (MIC)
Procedure: as §1

[3] = test system: Pr. vulgaris, 3167; details: Proteus vulgaris, 10^6/ml bacteria, 37°C, 18 hours, read-out: Minimal Inhibitory Concentration (MIC)
Procedure: as §1

[4] = test system: Ps. aeruginosa, 2063; details: Pseudomonas aeruginosa, 10^6/ml bacteria, 37°C, 18 hours, read-out: Minimal Inhibitory Concentration (MIC)
Procedure: as §1

[5] = test system: Ps. aeruginosa, 2128; details: Pseudomonas aeruginosa, 10^6/ml bacteria, 37°C, 18 hours, read-out: Minimal Inhibitory Concentration (MIC)
Procedure: as §1

[6] = test system: Ps. aeruginosa, 2131; details: Pseudomonas aeruginosa, 10^6/ml bacteria, 37°C, 18 hours, read-out: Minimal Inhibitory Concentration (MIC)
Procedure: as §1

[7] = test system: Ps. cepacia, IID1340; details: Burkholderia cepacia, 10^6/ml bacteria, 37°C, 18 hours, read-out: Minimal Inhibitory Concentration (MIC)
Procedure: as §1

[8] = test system: Ps. maltophilia, IID1275; details: Stenotrophomonas maltophilia, 10^6/ml bacteria, 37°C, 18 hours, read-out: Minimal Inhibitory Concentration (MIC)
Procedure: as §1

[9] = test system: S. aureus, Smith; details: Staphylococcus aureus, 10^6/ml bacteria, 37°C, 18 hours, read-out: Minimal Inhibitory Concentration (MIC)
Procedure: as §1

[10] = test system: S. epidermis, 56556; details: 10^6/ml bacteria, 37°C, 18 hours, read-out: Minimal Inhibitory Concentration (MIC)
Procedure: as §1

[11] = test system: Ser. marcescens, 13001; details: Serratia marcescens, 10^6/ml bacteria, 37°C, 18 hours, read-out: Minimal Inhibitory Concentration (MIC)
Procedure: as §1

[12] = test system: Sh. flexneri, 2a5503; details: Shigella flexneri, 10^6/ml bacteria, 37°C, 18 hours, read-out: Minimal Inhibitory Concentration (MIC)
Procedure: as §1

[13] = test system: Str. faecalis, ATCC19433; details: Enterococcus faecalis, 10^6/ml bacteria, 37°C, 18 hours, read-out: Minimal Inhibitory Concentration (MIC)
Procedure: as §1

[14] = test system: Str. pyogenes, G-36; details: Streptococcus pyogenes, G36, 10^6/ml bacteria, 37°C, 18 hours, read-out: Minimal Inhibitory Concentration (MIC)
Procedure: as §1

SMILES	MIC [1] [µg/mL]	MIC [2] [µg/mL]	MIC [3] [µg/mL]	MIC [4] [µg/mL]	MIC [5] [µg/mL]	MIC [6] [µg/mL]	MIC [7] [µg/mL]	MIC [8] [µg/mL]	MIC [9] [µg/mL]	MIC [10] [µg/mL]	MIC [11] [µg/mL]	MIC [12] [µg/mL]	MIC [13] [µg/mL]	MIC [14] [µg/mL]
CCn1cc(C(=O)O)c(=O)c2cc(F)c(N3CCNCC3)nc21 [Control Compound, 1-ethyl-6-fluoro-7-(1-piperazinyl)-1,4-dihydro-4-oxo-1,8-naphthyridine-3-carboxylic acid, reference compound]	0.2 (≈ 0.624 µM)	0.2 (≈ 0.624 µM)	0.2 (≈ 0.624 µM)	0.78 (≈ 2.44 µM)	0.78 (≈ 2.44 µM)	0.2 (≈ 0.624 µM)	50 (≈ 156 µM)	0.78 (≈ 2.44 µM)	0.78 (≈ 2.44 µM)	0.78 (≈ 2.44 µM)	0.2 (≈ 0.624 µM)	0.2 (≈ 0.624 µM)	6.25 (≈ 19.5 µM)	25 (≈ 78 µM)
O=C(O)c1cn(C2CC2)c2nc(N3CCNCC3)c(F)cc2c1=O [No. 1, 1-cyclopropyl-6-fluoro-7-(1-piperazinyl)-1,4-dihydro-4-oxo-1,8-naphthyridine-3-carboxylic acid]	≤ 0.05	≤ 0.05	≤ 0.05	0.1 (≈ 0.301 µM)	0.1 (≈ 0.301 µM)	0.1 (≈ 0.301 µM)	3.13 (≈ 9.42 µM)	0.78 (≈ 2.35 µM)	0.39 (≈ 1.17 µM)	0.39 (≈ 1.17 µM)	≤ 0.05	≤ 0.05	1.56 (≈ 4.69 µM)	6.25 (≈ 18.8 µM)
NC1CCN(c2nc3c(cc2F)c(=O)c(C(=O)O)cn3C2CC2)C1 (stereo not shown) [No. 2, 1-cyclopropyl-6-fluoro-7-(3-amino-1-pyrrolidinyl)-1,4-dihydro-4-oxo-1,8--naphthyridine-3-carboxylic acid]	≤ 0.05	≤ 0.05	≤ 0.05	≤ 0.05	≤ 0.05	0.1 (≈ 0.301 µM)	0.39 (≈ 1.17 µM)	0.39 (≈ 1.17 µM)	0.1 (≈ 0.301 µM)	0.1 (≈ 0.301 µM)	≤ 0.05	≤ 0.05	0.39 (≈ 1.17 µM)	0.78 (≈ 2.35 µM)
O=C(O)c1cn(C2CC2)c2nc(N3CCC(O)C3)c(F)cc2c1=O (stereo not drawn) [No. 3, l-cyclopropyl-6-fluoro-7-(3-hydroxy-l-pyrrolidinyl)-1,4-dihydro-4-oxo-1,8-naphthyridine-3-carboxylic acid]	≤ 0.05	≤ 0.05	≤ 0.05	0.39 (≈ 1.17 µM)	0.39 (≈ 1.17 µM)	0.78 (≈ 2.34 µM)	0.39 (≈ 1.17 µM)	0.39 (≈ 1.17 µM)	≤ 0.05	0.1 (≈ 0.3 µM)	0.1 (≈ 0.3 µM)	≤ 0.05	0.39 (≈ 1.17 µM)	1.56 (≈ 4.68 µM)
CN1CCN(c2nc3c(cc2F)c(=O)c(C(=O)O)cn3C2CC2)CC1 [No. 4, 1-cyclopropyl-6-fluoro-7-(4-methyl-1-piperazinyl)-1,4-dihydro-4-oxo-1,8-naphthyridine-3-carboxylic acid]	≤ 0.05	≤ 0.05	≤ 0.05	0.39 (≈ 1.13 µM)	0.2 (≈ 0.577 µM)	0.39 (≈ 1.13 µM)	1.56 (≈ 4.5 µM)	0.39 (≈ 1.13 µM)	0.2 (≈ 0.577 µM)	0.39 (≈ 1.13 µM)	≤ 0.05	≤ 0.05	3.13 (≈ 9.04 µM)	6.25 (≈ 18 µM)
O=C(O)c1cn(C2CC2)c2nc(N3CCCNCC3)c(F)cc2c1=O [No. 5, 1-cyclopropyl-6-fluoro-7-(1-homopiperazinyl)-1,4-dihydro-4-oxo-1,8-naphthyridine-3-carboxylic acid]	≤ 0.05	0.1 (≈ 0.289 µM)	≤ 0.05	0.2 (≈ 0.577 µM)	0.1 (≈ 0.289 µM)	0.2 (≈ 0.577 µM)	0.78 (≈ 2.25 µM)	1.56 (≈ 4.5 µM)	0.39 (≈ 1.13 µM)	0.39 (≈ 1.13 µM)	0.1 (≈ 0.289 µM)	≤ 0.05	6.25 (≈ 18 µM)	12.5 (≈ 36.1 µM)
CN1CCCN(c2nc3c(cc2F)c(=O)c(C(=O)O)cn3C2CC2)CC1 [No. 6, 1-cyclopropyl-6-fluoro-7-(N-methyl-1-homopiperazinyl)-1,4-dihydro-4-oxo-1,8-naphthyridine-3-carboxylic acid]	≤ 0.05	0.2 (≈ 0.555 µM)	0.1 (≈ 0.277 µM)	0.78 (≈ 2.16 µM)	0.39 (≈ 1.08 µM)	0.78 (≈ 2.16 µM)	0.78 (≈ 2.16 µM)	0.39 (≈ 1.08 µM)	0.39 (≈ 1.08 µM)	0.39 (≈ 1.08 µM)	0.2 (≈ 0.555 µM)	0.1 (≈ 0.277 µM)	6.25 (≈ 17.3 µM)	6.25 (≈ 17.3 µM)
CC1CN(c2nc3c(cc2F)c(=O)c(C(=O)O)cn3C2CC2)CCN1 (stereo not shown) [No. 7, 1-cyclopropyl-6-fluoro-7-(3-methyl-1-piperazinyl)-1,4-dihydro-4-oxo-1,8--naphthyridine-3-carboxylic acid]	≤ 0.05	0.1 (≈ 0.289 µM)	≤ 0.05	0.2 (≈ 0.577 µM)	0.2 (≈ 0.577 µM)	0.1 (≈ 0.289 µM)	0.39 (≈ 1.13 µM)	0.39 (≈ 1.13 µM)	0.39 (≈ 1.13 µM)	0.78 (≈ 2.25 µM)	≤ 0.05	≤ 0.05	3.13 (≈ 9.04 µM)	1.56 (≈ 4.5 µM)
